Patent publication US20240409864A1, “Apparatus and Methods for Generating and Analyzing Three-Dimensional Cellular Materials” (Agilent Technologies, Inc., priority 2021, published 2024)

How the values were obtained:
[1] = system: HepG2 spheroids; test: Mitochondrial stress test, oxygen consumption rate (Seahorse XF); format: cell-based; conditions: HepG2 spheroids assayed after 6 days, 50 microliters Lipidure coating
From the text: (§3) A common test performed on the system described above is a mitochondrial stress test. In this assay a series of injections are delivered through the drug ports of the cartridge in order to measure the response of the biological sample to various compounds (oligomycin, FCCP, rotenone and antimycin). These compounds are preloaded into a drug reservoir (port) on the XF cartridge prior to execution of the assay. When the cartridge is inserted into the instrument it is coupled to a manifold which when activated by a solenoid valve, provides pneumatic pressure to the head space of the reservoir forcing the compound through a small orifice and into the well containing the biological sample.
The experimental protocol was as follows: • 1. Add 50 ul of Lipidure solution (prepared in ETOH) to the plates. Leave overnight at 37 degrees C. or at 50 degrees C. for 1 hour for the ETOH to evaporate. • 2. Trypsinize the HepG2 with multiple washes of Mg—Ca free PBS to make single cells. Leave in incubator at 37 deg C. for 2-3 mins. • 3. Transfer cells to centrifugal tube and add PBS to fill half the tube then count cells based on density prior to centrifugation. • 4. Centrifuge the cell suspension and resuspend the pellet in fresh medium. • 5. Add 10K cells per well with fresh growth medium (180 ul per well) • 6. Centrifuge, if necessary, at 1000 rpm for 2-3 minutes with low deceleration. Centrifugation helps the cells to come together, if needed. • 7. When desirable tight clusters are formed (3-5 days), proceed with the Seahorse XF assay. • 8. For HepG2, DMEM PH 7.4 media from Seahorse supplemented with glutamine, sodium pyruvate and glucose were used (same concentration as the growth medium). • 9. With a multiple channel, pull out about 150 microliters of spent medium and add 180 microliters of fresh Seahorse medium slowly sliding through the walls. • 10. Follow with 2-3 washes to dilute out the FBS from the wells. • 11. After every wash check if the spheroid is still in the center. The white spot of the spheroid is easily seen on dark lab counter tops. • 12. Follow known protocol for traditional oxygen consumption rate (OCR) assay based on the mitochondrial stress test described in detail above. • 13. Take before and after images to verify the spheroids remain centered throughout. • 14.
Further, and referring to FIGS. 16 and 17, the oxygen consumption rate was performed on wells 1-6 using the mitochondrial stress test described above using HepG2 spheroids generated and assayed after 6 days in a plate with the geometric configuration of the present disclosure.

[2] = system: Panc1 spheroids; test: as above; format: cell-based; conditions: Panc1 spheroids assayed after 8 days; polished plate, 20 microliters Lipidure coating; FIG. 15
From the text: as §3
First, Panc1/HepG2 cells were grown in the well plates generally contemplated by the present disclosure but with only a single concentric lip as well as commercially available plates, followed by the transfer of the spheroids cultured in the commercially available plates to the plates of the present disclosure. The experimental protocol was as follows: • 1. Add 50 ul of Lipidure solution (prepared in ETOH) to the plates. Leave overnight at 37 degrees C. or at 50 degrees C. for 1 hour for the ETOH to evaporate. • 2. Trypsinize the HepG2 with multiple washes of Mg—Ca free PBS to make single cells. Leave in incubator at 37 deg C. for 2-3 mins. • 3. […]

[3] = system: Panc1 spheroids; conditions: Panc1 spheroids about 325 and 250 micrometers, final concentration 1 μM, BioFLOAT coating, no centrifugation
From the text: (§1) Panc1, HepG2, and C2C12 cell lines were used to form spheroids in an apparatus with wells having the geometry shown at least in FIGS. 2, 3, and 4 of the present disclosure. The wells were coated with either Lipidure® or BioFLOAT® ultra low adhesion coatings according to manufacturer protocols, after which the cell lines were introduced to the well plates and spheroids were formed according to the following protocol: • Apply ULA coatings according to manufacturer's protocols • Use trypsin to detach cells of interest (C2C12, Panc1, or HepG2) and create a single cell suspension • Deactivate trypsin via addition of complete culture media • Perform a cell count • Centrifuge the cell suspension at 250 G for 5 minutes and resuspend the pellet in fresh medium at the required density. • Add 300-1500 cells per well with fresh growth medium to a final volume of 200 ul per well • Centrifuge, if necessary, at 250 G for 5 minutes with low deceleration. Centrifugation helps the cells to come together, if needed. • When desirable tight clusters are formed (typically 3-5 days), proceed with the Seahorse XF assay. • DMEM PH 7.4 media from Seahorse supplemented with glutamine, sodium pyruvate and glucose were used (same concentration as the growth medium). • With a multiple channel, pull out about 100 microliters of spent medium and add 100 microliters of fresh Seahorse medium slowly sliding through the walls. • Follow with 3-5 washes to dilute out the old media from the wells. • Perform desired Seahorse assay-Basal, Mito Stress Test, FCCP addition, or others.
(§2) Next, C2C12 and Panc1 cells were seeded in BioFLOAT® coated spheroid plates as contemplated by the present disclosure at two different concentrations. The cells were allowed to settle without centrifugation and form spheroids for two days. […] The largest cross-sectional diameter was measured to characterize the size of the spheroids.

[4] = system: C2C12 spheroids; conditions: C2C12 spheroids about 180 and 140 micrometers, final concentration 1 μM, BioFLOAT coating, no centrifugation
From the text: as §1, §2

| Molecule | oxygen consumption rate response ([1]; polished plate, FIG. 19) | oxygen consumption rate response ([1]; unpolished plate, FIG. 17) | oxygen consumption rate response [2] | oxygen consumption rate (OCR) after injection ([3]; FIG. 42) | extra cellular acidification rate (ECAR) after injection ([3]; FIG. 43) | oxygen consumption rate (OCR) after injection ([4]; FIG. 44) | extra cellular acidification rate (ECAR) after injection ([4]; FIG. 45) |
| --- | --- | --- | --- | --- | --- | --- | --- |
| FCCP | good response | good response | good response | increased | increased | increased | increased |
| CC[C@H]1/C=C/C=C/C[C@@H](C)[C@H](O)[C@@](C)(O)C(=O)[C@@H](C)[C@H](O)[C@@H](C)C(=O)[C@@H](C)[C@H](O)[C@@H](C)/C=C/C(=O)O[C@@H]2[C@H](C)[C@H](CC1)O[C@]1(CC[C@H](C)[C@H](C[C@@H](C)O)O1)[C@H]2C [oligomycin] | good response | good response | did not show the dip on oxygen consumption | – | – | – | – |
